Reference: US20110081362A1, “TREATMENT OF CANCER” (THE BRIGHAM AND WOMEN'S HOSPITAL, INC., priority 2008, published 2011)
“Also recorded” adds a separate entry of the source.

How the values were obtained:
Assay type in all cases: cell-based, human
[1] = system: MDM2 and p21; test: Western blot of MDM2 and p21 in response to nutlin-3; details: 2 days post treatment
Source text: D. Top, Western blots of MDM2 protein knockdown in HCC1954 cells and HMECs by MDM2 shRNAs (4 days post-infection) as indicated in FIG. 4E.
The following primary and secondary antibodies were used for immunoblotting with the indicated dilutions: rabbit anti-Rbx1 and mouse anti-PRPS2 (1:500, Abcam), rabbit anti-MYPT1 (PPP1R12A gene product, 1:500, Upstate), mouse anti-tubulin and rabbit anti-GAPDH (1:2000, Sigma), mouse anti MDM2 (1:500, Santa Cruz), rabbit anti-BUB1 (1:500, Bethyl), mouse anti-p53 DO-1 and mouse anti-p21 (1:500, Calbiochem), goat anti-rabbit-HRP (1:5000, Jackson ImmunoResearch), and goat anti-mouse-HRP (1:5000, Jackson ImmunoResearch). Positive and negative siRNA controls, including siLUC, siTOX, siGLO duplexes and a PLK1 SMARTpool, were purchased from Dharmacon.

[2] = system: HMECs, HCT116, HCC1954 and DLD-1 cells; test: Cell viability after nutlin-3 treatment; details: 4 days of nutlin-3 treatment; HMECs and HCT116 p53 wild-type, HCC1954 and DLD-1 p53 mutant
Procedure: Cell viability is reflective of their p53 status (HMECs and HCT116 cells, p53 wild-type; HCC1954 and DLD-1 cells, p53 mutant). Cell viability was measured after 4 days of nutlin-3 treatment (*, P<0.05). ctrl, control.
Cells were infected in triplicate in 96-well or 24-well plates with retroviruses of individual shRNAs as described above, and the media was replaced 24 h after infection. On days 2, 6, or 9 post-infection, cell viability was measured using CellTiter-Glo reagent (Promega) per manufacturer's instruction on a Wallac Victor2 plate reader (Perkin Elmer).

[3] = system: DLD-1 Ras Mut cells vs DLD-1 Ras WT cells; test: Competition assay, GFP-labeled Ras Mut vs Ras WT cells, FACS
Procedure: E. Schematic of the competition assay used to validate shRNAs from the primary screen. Ras Mut cells expressing GFP and Ras WT cells were mixed and co-infected with the same retroviral shRNA. The Mut to WT cell ratio at the end of the experiment is measured by FACS. The percentage of Ras Mut cells in the mixture infected with a candidate RSL shRNA was normalized against that of a control shRNA targeting firefly luciferase (FF) within the same experiment to generate a normalized fitness score for the Ras Mut cells. Variations of this assay are also used to test the effect of siRNAs and chemical inhibitors.
Next, a competition assay was devised to test the reproducibility of candidate RSL shRNAs from the primary screen (Torrance et al., 2001; Smogorzewska et al., 2007). Individual shRNAs were packaged into retroviruses and infected into a 50:50 mixture of GFP+ DLD-1 Ras Mut cells and GFP (colorless) DLD-1 Ras WT cells. The relative ratio of Ras Mut versus WT cells at ˜7 days post shRNA infection was analyzed by FACS and compared to that of a mixed population infected with a negative control shRNA targeting luciferase (FIG. 8E). […] To rule out cell-line specific effect of candidate RSL shRNAs, candidates were tested using the competition assay in a second isogenic pair of colorectal cancer cell lines: HCT116 KRAS WT/G13D and HCT116 KRAS WT/−, which were derived with a similar method as the DLD-1 isogenic pair (Shirasawa et al., 1993; Torrance et al., 2001).
The competition assay used to test candidate genes from the screen was modified from a previous protocol (Torrance et al., 2001; Smogorzewska et al., 2007) and was carried out in 96-well plates in independent triplicates. For this assay, 1,000 each of GFP-labeled Ras Mut and unlabeled Ras WT cells were seeded in each well. For retroviral shRNA infection, cells were infected at an MOI of 1-5, selected for 3 days with puromycin and propagated for an additional 4-5 days before analyzed by FACS. An shRNA targeting firefly luciferase (shRNA-FF) was used as the negative control. For siRNA transfection, cells were transfected with siGenome siRNAs (Dharmacon) using Lipofectamine RNAiMAX (InVitrogen) and analyzed by FACS 5-6 days post transfection An siRNA targeting luciferase (Luc) was used as the negative control. […] Untreated wells were used as negative controls. To obtain normalized fitness of Ras Mut cells that can be compared across experiments, the percentage of Ras Mut cells in each sample was normalized to that in the control samples of that experiment.

[4] = system: HCT116 PI3K Mut cells vs PI3K WT cells; test: Competition assay, PI3K Mut vs PI3K WT cells; details: HCT116 isogenic for the PI3K oncogene
[5] = system: DLD-1 Ras Mut cells; test: CellTiter GLO cell viability assay; details: DLD-1 Ras Mut vs WT measured independently
Procedure: The DLD-1 and HCT116 isogenic cells were kind gifts from Dr. Bert Vogelstein (Johns Hopkins University School of Medicine) and were maintained in McCoy's 5A media supplemented with 10% FBS and antibiotics. For proliferation assays, 10,000 cells were seeded in each well of a 24-well plate and cell number was measured using CellTiterGLO (Promega). For adherent colony assays, 1000 cells were seeded in each well of a 6-well plate and colonies were counted 10 days later by Coomassie staining. For anchorage independent colony assays, 1000 cells were seeded in each well of a 6-well plate in media containing 0.35% low-melting point agarose and colonies were counted 3 weeks later by crystal violet staining. The PCR primers used to amplify HH barcodes from genomic DNA samples are JH353F 5′-[…]-3′ and HHR2L 5′-[…]-3′. […] Paclitaxel, nocodazole, MG132 and monastrol were from Sigma-Aldrich. RO-3306 was from EMD Calbiochem. Bortezomib was from LC Laboratories. Rabbit antibody against phospho-PLK1 T210 was from Abcam. Rabbit phosphoH3-S10 antibody was from Covance. Mouse antibodies against PLK1, K-Ras and tubulin were from Santa Cruz Biotechnologies. Rabbit anti-COPS4 antibody was from Bethyl Laboratories.

[6] = system: DLD-1 PI3K Mut cells vs PI3K WT cells; test: Competition assay, PI3K Mut vs PI3K WT cells; details: DLD-1 isogenic for the PI3K oncogene
[7] = system: DLD-1 Ras Mut and Ras WT cells; test: Cell cycle and mitotic stage analysis (FACS, phospho-H3 Ser10, microscopy); details: for Completion of mitosis (mitotic exit) after nocodazole release: BI-2536 for 2 hours
Procedure: For cell cycle analysis, cells were ethanol fixed and stained with PI and analyzed using a BD LSR II FACS analyzer (BD Bioscience). Data analysis was carried out with BD FACS Diva and FlowJo softwares. Cell cycle synchronization by double thymidine block was based on a previous protocol (Steegmaier et al., 2007). Briefly, cells were arrested with two rounds of 20-hour thymidine (2.5 mM) treatment approximately 12 hours apart and released into mitosis. […] For one-step arrest in G2/M or in prometaphase, cells were treated overnight with either RO-3306 (10 μM) or the Eg5 kinesin inhibitor monastrol (100 μM), respectively. For mitotic entry experiments, cells were synchronized in RO-3306 (10 uM) overnight prior to release. For mitotic release experiments, cells were released from overnight synchronization in RO-3306 (10 uM) into nocodazole ([…]) for 4 hours and mitotic cells were collected by mitotic shake-off. Cells were then release by washing out the nocodazole. For the analysis of lagging chromosomes and mitotic index by microscopy, cells seeded onto coverslips were arrested in mitosis with 100 μM monastrol for 16 hours. Cells were washed and released into fresh media and were fixed at ten minute intervals for two hours in PHEM buffer+2% formaldehyde+0.5% triton-X100. Cells were immunostained with DAPI to visualized DNA and antibodies to phospho-histone H3 Ser10 (pH3S10) and to α-tubulin to identify mitotic cells at different stages. Independent triplicates with >100 cells per replicate were analyzed. For measuring mitotic index by FACS, cells were trypsinized, fixed with ethanol and stained with PI and pH3S10 antibody.

Row | SMILES | MDM2 and p21 protein induction [1] | Cell viability, sensitivity to nutlin-3 [2] | Viability/fitness of Ras Mut cells after transient treatment ([3]; DLD-1, 24 hours treatment, drug washed out, 3 additional days before FACS) | Concentration at which the synthetic lethal effect is strongest ([3]; DLD-1 cells) | Fitness of PI3K Mut cells vs PI3K WT cells [4] | Toxicity by CellTiter GLO cell viability [5] | Fitness of PI3K Mut cells vs PI3K WT cells [6] | G2/M accumulation, cell cycle distribution ([7]; DLD-1, 25 nM or 50 nM BI-2536 for one day) | Sub-G1 population (cell death) ([7]; DLD-1, prolonged treatment with BI-2536 (25 nM) for 2 days) | Completion of mitosis (mitotic exit) after nocodazole release ([7]; DLD-1 Ras Mut cells) | Prometaphase arrest of mitotic cells ([7]; DLD-1 Ras Mut vs Ras WT) | Completion of mitosis (mitotic exit) after nocodazole release ([7]; DLD-1 Ras WT cells) | Mitotic entry after release from RO-3306 into nocodazole ([7]; DLD-1 Ras WT or Ras Mut, synthetic lethal concentration of BI-2536, 1 hour)
1 | COc1ccc(C2=N[C@@H](c3ccc(Cl)cc3)[C@@H](c3ccc(Cl)cc3)N2C(=O)N2CCNC(=O)C2)c(OC(C)C)c1 [nutlin-3] | MDM2 and p21 induction | recapitulating the sensitivity of these cells to MDM2 inactivation; also recorded: Differential sensitivity of the four cell lines |  |  |  |  |  |  |  |  |  |  | 
2 | CC[C@@H]1C(=O)N(C)c2cnc(Nc3ccc(C(=O)NC4CCN(C)CC4)cc3OC)nc2N1C1CCCC1 [BI-2536] |  |  | sufficient to selectively impair the viability of Ras Mut cells | approximately 25 nM | very little difference | enhanced toxicity in DLD-1 Ras Mut cells | more resistant to these inhibitors relative to DLD-1 PI3K WT cells | Ras Mut cells show a profound G2/M accumulation | elevated sub-G1 population in Ras Mut cells | profound delay in mitotic exit in Ras Mut cells | strong block of Ras Mut cells in prometaphase | minimal effect on Ras WT cells | unaffected
